Results taken from patent US10434143B2, “Method of treating anemia caused by ribavirin treatment of hepatitis C using erythropoietin alpha” (priority 2001, dated 2019).
Where “and” joins values, the source holds several entries; their conditions need not be identical. Equal values may be shown once.

How the values were obtained:
[1] = type: in vivo, human
Method: In an open-label, prospective pilot study, 56 subjects with chronic HCV infection were treated with both RBV and IFN-α. Eighteen subjects with anemia (hemoglobin 10 g/dl or […]) and reduced exercise tolerance following IFN-α/RBV initiation were treated with Epoetin alpha (up to 40,000 units per week subcutaneously). […] At the time of epoetin alpha initiation, the mean hemoglobin level declined 25.4% (to 10.6 g/dL) in the group receiving this treatment. […] Two thirds of subjects receiving epoetin alpha reported improved symptoms. […] Fifty-six chronically HCV-infected (≥90 days) subjects who were treated with IFN-α (3 million units TIW) and RBV (1000 mg/d for subjects <75 kg or 1200 mg/d for subjects ≥75 kg) were entered into an open-label, pilot, prospective study at several centers. […] RBV doses were adjusted by treating physicians as clinically indicated throughout the study. Following INF-α/RBV initiation, subjects with new-onset anemia (hemoglobin ≤10 g/dL or ≥2 g/dL decrease in hemoglobin) or a decrease in hemoglobin accompanied by decreased exercise tolerance (providers' impressions) received epoetin alpha (up to 40,000 units per week, subcutaneously). […] After initiation of epoetin alpha therapy, subjects were evaluated at a 2-week interval for 8 weeks and every 4 weeks thereafter for a maximum of 40 weeks. At each visit, laboratory safety parameters were obtained and, for most subjects, health-care providers recorded whether improvement had occurred in symptoms that typically occur as a side-effect of anemia or after therapy with IFN-α/RBV (e.g., flu-like symptoms, fatigue, dyspnea). […] In addition, clinical benefit of epoetin alpha therapy was evaluated by comparing the percent decline in hemoglobin levels from baseline to initiation of epoetin alpha with the percent recovery in these levels by the last visit. Fisher's exact test or the t-test was used to evaluate the significance of differences between groups with respect to demographic characteristics.

[2] = Erythropoietin 40,000 units weekly for ribavirin-induced anemia; type: in vivo, human
Method: A study of interferon alone and interferon plus ribavirin for hepatitis C in HIV-infected patients was performed. Ten patients received interferon alone and 11 received the combination treatment of interferon alpha and ribavirin. Median liver biopsy fibrosis score for both groups was 2.1. In the interferon alone group, at 3 months, there was no change in HCV RNA, CD4 dropped from a median of 190 to 186 cells/ml and HIV RNA dropped from a median of 1500 copies per ml to less than 400. At the same time point, 3 months, in the combination group, the HCV RNA dropped from 3.2 million to less than about 600 copies/ml. […] This was treated with erythropoietin 40,000 units weekly when the hemoglobin declined to 10 g/dl. […] This was the first report of this treatment in patients with HIV infection as well as hepatitis C. […] This was done in both HIV seronegative individuals and HIV seropositive individuals.

[3] = type: in vivo, human; remark: listed apart in the source
Method: Once-weekly recombinant human erythropoietin (epoetin alpha) facilitates optimal ribavirin (RBV) dosing in Hepatitis C virus (HCV)-infected patients receiving Interferon-α-2b (IFN)/RBV combination therapy. RBV dose reduction or discontinuation has been the standard approach to treating hemoglobin (Hb) decreases resulting from IFN/RBV therapy in HCV-infected patients. […] An open-label, randomized, multicenter study was conducted to assess the efficacy and tolerability of once-weekly (QW) epoetin alpha therapy for hemoglobin decreases associated with IFN/RBV therapy and to evaluate the impact of epoetin alpha therapy on RBV dosing. HCV-infected patients who developed hemoglobin levels ≤12 g/dL during the first 24 weeks of combination IFN/RBV therapy (n=60) were randomly assigned to treatment with epoetin alpha (40000 units) subcutaneously once weekly for up to 36 weeks or standard of care (SOC). The primary and secondary efficacy end points were changes from baseline (at Week 16) in hemoglobin level and RBV dose, respectively.

hepatitis C virus [4] = conditions: with interferon, licensing trials, cited from earlier work
hepatitis C virus [5] = experiment: Study of interferon alone and interferon plus ribavirin for hepatitis C in HIV-infected patients; type: in vivo, human; conditions: interferon alone group, 3 months, 10 patients
Method: A study of interferon alone and interferon plus ribavirin for hepatitis C in HIV-infected patients was performed. Ten patients received interferon alone and 11 received the combination treatment of interferon alpha and ribavirin. Median liver biopsy fibrosis score for both groups was 2.1. In the interferon alone group, at 3 months, there was no change in HCV RNA, CD4 dropped from a median of 190 to 186 cells/ml and HIV RNA dropped from a median of 1500 copies per ml to less than 400. At the same time point, 3 months, in the combination group, the HCV RNA dropped from 3.2 million to less than about 600 copies/ml. […] The main adverse event was anemia which occurred in 5/21(23.8%). This was treated with erythropoietin 40,000 units weekly when the hemoglobin declined to 10 g/dl. […] This was the first report of this treatment in patients with HIV infection as well as hepatitis C.

epoetin alpha: recombinant human erythropoietin (r-HuEPO, Epoetin alpha)
mean hemoglobin level at the last study visit ([1]; epoetin alpha up to 40,000 units per week s.c., N=18, mean follow-up 25.3 weeks): 12.7 g/dL and 12.7 ± 1.7 g/dL | Dyspnea (%) ([1]; human, in vivo): 80.0% | Dyspnea, median duration (wks) ([1]; human, in vivo): 6.6 wks | Fatigue (%) ([1]; human, in vivo): 73.3% | Fatigue, median duration (wks) ([1]; human, in vivo): 8.2 wks | Flu-like symptoms ([1]; human, in vivo): 46.7 | Flu-like symptoms, median duration (wks) ([1]; human, in vivo): 2.7 wks | recovery in mean hemoglobin level after initiation of epoetin alpha ([1]; percent recovery by the last visit): 65.5% and 65.5±56.3% | hemoglobin after erythropoietin treatment ([2]; begun when hemoglobin declined to 10 g/dl, after a median of 4 weeks, HCV/HIV patients): 12.7 g/dL | quality of life ([2]; hemoglobin 11 gr/dl or less, HIV seronegative and seropositive): substantial increase in their quality of life | mean hemoglobin level at last available assessment ([3]; P<0.05 vs SOC): 13.8 g/dL | mean change in RBV dose at last available assessment ([3]; baseline 998 mg/day, P<0.05 vs SOC): -25 mg/day | mean change from baseline hemoglobin level at last available assessment ([3]; epoetin alpha 40000 units s.c. once weekly, baseline 11.0 g/dL, P<0.05 vs SOC): +2.7 g/dL | tolerability ([3]; human, in vivo): well tolerated | patients treated with RBV doses greater than 10.6 mg/kg per day ([3]; last available assessment, P<0.01 vs SOC): 77%

NC(=O)c1ncn([C@@H]2O[C@H](CO)[C@@H](O)[C@H]2O)n1 [ribavirin]
sustained virologic response rate (hepatitis C virus [4]; at least 10.6 mg/kg ribavirin): over 40% | SVR (response) rate (hepatitis C virus [4]; less than 10.6 mg/kg ribavirin): 28%

IFN-α
change in HCV RNA (hepatitis C virus [5]): no change
